Source: the supplement of paper PMC8671470

How the values were obtained:
Conditions in all cases: 72 h
HL-60 [1] = assay: cell viability (% survival relative to DMSO control); higher = less cytotoxic
In short: (§1)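 A rescreen of the full library used HL-60 cells in RPMI 1640 with 10% FBS on 384-well plates, run in duplicate at five tenfold concentrations (1–10,000 nM). Each screen included DMSO or 100 nM of one of three metabolic inhibitors and ran 72 h at 37 °C, 5% CO2. CellTiter-Glo viability was scaled between DMSO and 10 μM proteasome-inhibitor wells. Any area under the curve comes from four-parameter log-logistic fits with drc and PharmacoGx.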

HL-60 [2] = assay: area under dose-response curve (viability, 1 nM-10 uM) (fraction (0-1)); higher = more sensitive
In short: as §1

ML-2 [3] = assay: cell viability (% survival relative to DMSO control, bortezomib = 0%); higher = less cytotoxic
In short: (§2)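 Fifteen myeloid leukaemia cell lines (10 AML, 5 CML) were seeded at a density titrated to the linear growth range into 384-well plates pre-printed with compounds at 1, 10, 100, 1000 or 10000 nM in duplicate. Plates were incubated for 72 h at 37 °C with 5% CO2. Viability was then read by CellTiter-Glo luminescence. Each value is percent survival averaged over the duplicates, with vehicle set to 100% and a 10 µM positive control to 0%.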

MV4-11 [4] = assay: as above
In short: as §2

MOLM-13 [5] = assay: as above
In short: as §2

LAMA-84 [6] = assay: as above
In short: as §2

BV-173 [7] = assay: as above
In short: as §2

SHI-1 [8] = assay: as above
In short: as §2

KG-1 [9] = assay: as above
In short: as §2

HEL [10] = assay: as above
In short: as §2

K-562 [11] = assay: as above
In short: as §2

KCL-22 [12] = assay: as above
In short: as §2

HL-60 [13] = assay: as above
In short: as §2

THP-1 = test system: THP-1
In short: (§3)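 Seeded in RPMI 1640 at densities within the linear growth range, fifteen myeloid leukaemia cell lines were dispensed into 384-well plates with acoustically pre-printed compounds spanning five tenfold doses from 1 to 10,000 nM, in duplicate. The plates were kept for 72 h at 37 °C in 5% CO2 before luminescent ATP viability was measured and normalised to vehicle and to a positive control at 10 µM. Curves were fitted with a four-parameter log-logistic model. The IC50 was taken from those curves.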

ML-2 [14] = test system: ML-2
In short: as §3

MV4-11 [15] = test system: MV4-11
In short: as §3

MOLM-13 [16] = test system: MOLM-13
In short: as §3

LAMA-84 [17] = test system: LAMA-84
In short: as §3

BV-173 [18] = test system: BV-173
In short: as §3

SHI-1 [19] = test system: SHI-1
In short: as §3

KG-1 [20] = test system: KG-1
In short: as §3

HEL [21] = test system: HEL
In short: as §3

K-562 [22] = test system: K-562
In short: as §3

KU-812 = test system: KU-812
In short: as §3

KCL-22 [23] = test system: KCL-22
In short: as §3

NOMO-1 = test system: NOMO-1
In short: as §3

HL-60 [24] = test system: HL-60
In short: as §3

Mono-Mac-6 = test system: Mono-Mac-6
In short: as §3

O[C@H]1[C@H](O)[C@@H](O)CN2CC[C@H](O)[C@H]12 [Castanospermine]
cell viability [%], HL-60 [1]
Conditions | 0.001 µM | 0.01 µM | 0.1 µM | 1 µM | 10 µM
co-treatment: AZD3965 100 nM | 97.9 | 97.5 | 104 | 101 | 101
co-treatment: DMSO vehicle | 98 | 100.5 | 96.8 | 98.7 | 101
co-treatment: GSK2194069 100 nM | 77.1 | 91.1 | 103 | 94.2 | 99.09
co-treatment: pictilisib 100 nM | 108 | 106 | 89.4 | 92.4 | 99.9

Conditions | area under dose-response curve, co-treatment: AZD3965 100 nM | area under dose-response curve, co-treatment: DMSO vehicle | area under dose-response curve, co-treatment: GSK2194069 100 nM | area under dose-response curve, co-treatment: pictilisib 100 nM | cell viability, 1 nM [%] | cell viability, 10 nM [%] | cell viability, 100 nM [%] | cell viability, 1000 nM [%] | cell viability, 10000 nM [%]
BV-173 [7] | – | – | – | – | 123 | 105 | 95.9 | 82.4 | 88.4
HEL [10] | – | – | – | – | 113 | 109 | 105 | 126 | 112
HL-60 [2] | < 0.0301 | < 0.0301 | < 0.0301 | < 0.0301 | – | – | – | – | –
HL-60 [13] | – | – | – | – | 94.2 | 90.7 | 114 | 132 | 143
K-562 [11] | – | – | – | – | 95.1 | 107 | 96.5 | 92.2 | 106
KCL-22 [12] | – | – | – | – | 99 | 98 | 112 | 125 | 94.9
KG-1 [9] | – | – | – | – | 120 | 98.4 | 116 | 99.4 | 104
LAMA-84 [6] | – | – | – | – | 93 | 97.5 | 103 | 95.8 | 101
ML-2 [3] | – | – | – | – | 115 | 107 | 103 | 96 | 94.1
MOLM-13 [5] | – | – | – | – | 79.9 | 90.7 | 108 | 123 | 117
MV4-11 [4] | – | – | – | – | 102 | 106 | 97 | 95.5 | 107
SHI-1 [8] | – | – | – | – | 106 | 98 | 108 | 125 | 112

Conditions | IC50 (cell viability) [µM]
BV-173 [18] | > 10
HEL [21] | > 10
HL-60 [24] | > 10
K-562 [22] | > 10
KCL-22 [23] | > 10
KG-1 [20] | > 10
KU-812 | > 10
LAMA-84 [17] | > 10
ML-2 [14] | > 10
MOLM-13 [16] | > 10
MV4-11 [15] | > 10
Mono-Mac-6 | > 10
NOMO-1 | > 10
SHI-1 [19] | > 10
THP-1 | > 10

O=C(/C=C/c1cccnc1)NCCCCC1CCN(C(=O)c2ccccc2)CC1 [Daporinad]
cell viability [%], HL-60 [1]
Conditions | 0.001 µM | 0.01 µM | 0.1 µM | 1 µM | 10 µM
co-treatment: AZD3965 100 nM | 101 | 17.8 | 1.54 | 0.351 | 0.166
co-treatment: DMSO vehicle | 93.6 | 37.7 | 3.2 | 0.816 | 0.766
co-treatment: GSK2194069 100 nM | 86.2 | 31.1 | 2.41 | 0.71 | 1.09
co-treatment: pictilisib 100 nM | 89.7 | 42 | 2.3 | 0.651 | 2.01

Conditions | area under dose-response curve, co-treatment: AZD3965 100 nM | area under dose-response curve, co-treatment: DMSO vehicle | area under dose-response curve, co-treatment: GSK2194069 100 nM | area under dose-response curve, co-treatment: pictilisib 100 nM | cell viability, 1 nM [%] | cell viability, 10 nM [%] | cell viability, 100 nM [%] | cell viability, 1000 nM [%] | cell viability, 10000 nM [%]
BV-173 [7] | – | – | – | – | 15.7 | 1.15 | 0.0754 | 0.00943 | 0.321
HEL [10] | – | – | – | – | 85.7 | 2.97 | 1.75 | 1.48 | 1.85
HL-60 [2] | 0.825 | 0.78 | 0.79 | 0.75 | – | – | – | – | –
HL-60 [13] | – | – | – | – | 63.1 | 6.64 | -0.363 | -0.298 | -0.289
K-562 [11] | – | – | – | – | 86.5 | 20.4 | 1.83 | 0.861 | 1.37
KCL-22 [12] | – | – | – | – | 83.9 | 10.3 | 1.38 | 1.35 | 1.59
KG-1 [9] | – | – | – | – | 88 | 25.3 | 10.8 | 8.29 | 7.46
LAMA-84 [6] | – | – | – | – | 83.1 | 6.18 | 2.02 | 1.79 | 2.17
ML-2 [3] | – | – | – | – | 66 | 1.63 | 0.115 | 0.00307 | -0.274
MOLM-13 [5] | – | – | – | – | 69.1 | 15.7 | 0.0519 | 0.204 | -0.318
MV4-11 [4] | – | – | – | – | 25.5 | 0.401 | 0.0312 | -0.345 | -0.425
SHI-1 [8] | – | – | – | – | 86.7 | 107 | 83 | 68.9 | 75.5

Conditions | IC50 (cell viability) [µM]
BV-173 [18] | < 0.001
HEL [21] | 0.00233
HL-60 [24] | 0.00147
K-562 [22] | 0.00378
KCL-22 [23] | 0.00331
KG-1 [20] | 0.00363
KU-812 | 0.00334
LAMA-84 [17] | 0.00218
ML-2 [14] | 0.00139
MOLM-13 [16] | 0.00369
MV4-11 [15] | < 0.001
Mono-Mac-6 | 0.0206
NOMO-1 | < 0.001
SHI-1 [19] | > 10
THP-1 | > 10

N=C(N)c1ccc(N=NNc2ccc(C(=N)N)cc2)cc1 [Diminazene]
cell viability [%], HL-60 [1]
Conditions | 0.001 µM | 0.01 µM | 0.1 µM | 1 µM | 10 µM
co-treatment: AZD3965 100 nM | 94.9 | 98.5 | 106 | 93.1 | 101
co-treatment: DMSO vehicle | 101.5 | 100.7 | 99.712 | 101.22 | 100.7
co-treatment: GSK2194069 100 nM | 99.7 | 100 | 105 | 100.3 | 101.5
co-treatment: pictilisib 100 nM | 83.5 | 98 | 107.8 | 97.2 | 104

Conditions | area under dose-response curve, co-treatment: AZD3965 100 nM | area under dose-response curve, co-treatment: DMSO vehicle | area under dose-response curve, co-treatment: GSK2194069 100 nM | area under dose-response curve, co-treatment: pictilisib 100 nM | cell viability, 1 nM [%] | cell viability, 10 nM [%] | cell viability, 100 nM [%] | cell viability, 1000 nM [%] | cell viability, 10000 nM [%]
BV-173 [7] | – | – | – | – | 104 | 103 | 106 | 106 | 103
HEL [10] | – | – | – | – | 103 | 109 | 111 | 93.8 | 111
HL-60 [2] | < 0.0301 | < 0.0301 | < 0.0301 | < 0.0301 | – | – | – | – | –
HL-60 [13] | – | – | – | – | 83 | 102 | 123 | 116 | 96.6
K-562 [11] | – | – | – | – | 102 | 99.3 | 119 | 94.5 | 96.7
KCL-22 [12] | – | – | – | – | 102 | 96.6 | 114 | 84.4 | 72.7
KG-1 [9] | – | – | – | – | 115 | 109 | 114 | 97.7 | 88.9
LAMA-84 [6] | – | – | – | – | 105 | 103 | 108 | 105 | 98.3
ML-2 [3] | – | – | – | – | 104 | 98.7 | 100 | 106 | 93.7
MOLM-13 [5] | – | – | – | – | 94.4 | 98.1 | 101 | 73.7 | 93.9
MV4-11 [4] | – | – | – | – | 113 | 100 | 94.6 | 92.2 | 77.9
SHI-1 [8] | – | – | – | – | 100 | 102 | 116 | 95.3 | 95.8

Conditions | IC50 (cell viability) [µM]
BV-173 [18] | > 10
HEL [21] | > 10
HL-60 [24] | > 10
K-562 [22] | > 10
KCL-22 [23] | > 10
KG-1 [20] | > 10
KU-812 | > 10
LAMA-84 [17] | > 10
ML-2 [14] | > 10
MOLM-13 [16] | > 10
MV4-11 [15] | > 10
Mono-Mac-6 | > 10
NOMO-1 | > 10
SHI-1 [19] | > 10
THP-1 | > 10
